Laboratory results: US8476253B2, “Amide derivative” (Daiichi Sankyo Company, Limited, priority 2009, dated 2013)

Legend:
Parameters in all cases: species or system guinea pig
muscarine M3 receptor = assay: Effect of suppressing methacholine-induced airway contraction (in vivo, intratracheal administration); settings: guinea pigs, intratracheal administration 60 minutes before 30 μg/kg i.v. methacholine; AUC of increase in airway pressure over 10 minutes
Description: (§1) Using healthy guinea pigs (body weight, 350 to 550 g; Hartley male guinea pigs), the effect of suppressing airway contraction induced by methacholine, which is a muscarine receptor agonist, was examined by a modified method of Konzett-Roessler (Naunyn-Schmiedebergs Arch. Exp. Pathol. Pharmakol. 195, 71 [1940]) using airway pressure as an indicator.
(§2) A tracheal cannula and a venous cannula were attached to a guinea pig anesthetized with pentobarbital (50 mg/mL of solution, 0.40 to 0.50 mL/body, subcutaneous administration). An arterial cannula filled with heparin-containing physiological saline (100 U/mL) was further attached, and blood pressure and heart rate were monitored via an amplifier and an instantaneous heart rate meter. Subsequently, gallamine (20 mg/body, intravenous administration) was administered to terminate spontaneous breathing, and then 10 mL/kg of positive pressure breathing (Ugo-Basile Biological Research Apparatus, Cat. No. 7025) was rapidly performed at 60 times/min. The airway pressure during artificial breathing was detected with a pressure transducer (TP-200T or TP-400T; Nihon Kohden Corporation) attached to a side branch of the tracheal cannula, amplified (AP-601G; Nihon Kohden Corporation), and recorded in a recorder. After the airway pressure, blood pressure, and heart rate were stabilized, 30 μg/kg of methacholine was intravenously administered from the venous cannula to induce airway contraction, and the airway pressure was measured for the following 10 minutes.
A test substance was dissolved in 5% glucose solution, and a 0.5 mL/kg solution was administered intratracheally with an intratracheal administration apparatus (model 1A-1B; Penn-Century, Inc.) 60 minutes before stimulation with methacholine.
(§3) The AUC of increase in the airway pressure over 10 minutes after administration of methacholine was measured as the intensity of methacholine-induced airway contraction and calculated as an ID50 value from the inhibition rate based on the value of the control group (a 5% glucose solution intratracheal administration group).

neurokinin NK2 receptor = target: T1, neurokinin NK2 receptor (Cavia porcellus, UniProt Q64077); assay: Effect of suppressing neurokinin A-induced airway contraction (in vivo, intratracheal administration); settings: guinea pigs, intratracheal administration 60 minutes before 4 μg/kg i.v. NKA; AUC of increase in airway pressure over 10 minutes
T1 construct: Using healthy guinea pigs (body weight, 350 to 550 g; Hartley male guinea pigs); from tissue; host or cells: live anaesthetised Hartley male guinea pigs (airway, in vivo)
T1 sequence (Q64077 1-402): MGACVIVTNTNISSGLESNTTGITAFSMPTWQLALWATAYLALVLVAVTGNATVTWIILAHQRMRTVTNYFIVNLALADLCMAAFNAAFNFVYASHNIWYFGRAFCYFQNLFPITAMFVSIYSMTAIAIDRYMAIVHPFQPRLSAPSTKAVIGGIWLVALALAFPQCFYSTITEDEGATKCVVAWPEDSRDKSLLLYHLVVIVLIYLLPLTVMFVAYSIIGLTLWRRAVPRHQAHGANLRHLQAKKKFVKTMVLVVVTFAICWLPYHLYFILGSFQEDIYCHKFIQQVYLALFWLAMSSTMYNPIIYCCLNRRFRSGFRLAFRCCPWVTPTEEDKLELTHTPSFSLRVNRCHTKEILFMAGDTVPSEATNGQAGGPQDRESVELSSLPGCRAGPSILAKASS
Description: as §1, with “neurokinin A (NKA),” for “methacholine,”, “an NK2” for “a muscarine”
as §2, with “mg/mL” for “mg/mL of”, “and” for “and then”, “4” for “30”, “NKA” for “methacholine”
The test substance was dissolved in a 5% glucose solution, and a 0.5 mL/kg solution was intratracheally administered with an intratracheal administration apparatus (model 1A-1B; Penn-Century, Inc.) 60 minutes before stimulation with NKA.
as §3, with “NKA” for “methacholine”, “determined” for “measured”, “NKA-induced” for “methacholine-induced”, “(5%” for “(a 5%”

neurokinin NK1 receptor = target: T2, neurokinin NK1 receptor (Cavia porcellus, UniProt P30547); assay: Effect of suppressing substance P-induced airway contraction (in vivo, intratracheal administration); settings: guinea pigs, intratracheal administration 60 minutes before 20 μg/kg i.v. SP; AUC of increase in airway pressure over 10 minutes
T2 construct: Using healthy guinea pigs (body weight, 350 to 550 g; Hartley male guinea pigs); from tissue; host or cells: live anaesthetised Hartley male guinea pigs (airway, in vivo)
T2 sequence (P30547 whole entry): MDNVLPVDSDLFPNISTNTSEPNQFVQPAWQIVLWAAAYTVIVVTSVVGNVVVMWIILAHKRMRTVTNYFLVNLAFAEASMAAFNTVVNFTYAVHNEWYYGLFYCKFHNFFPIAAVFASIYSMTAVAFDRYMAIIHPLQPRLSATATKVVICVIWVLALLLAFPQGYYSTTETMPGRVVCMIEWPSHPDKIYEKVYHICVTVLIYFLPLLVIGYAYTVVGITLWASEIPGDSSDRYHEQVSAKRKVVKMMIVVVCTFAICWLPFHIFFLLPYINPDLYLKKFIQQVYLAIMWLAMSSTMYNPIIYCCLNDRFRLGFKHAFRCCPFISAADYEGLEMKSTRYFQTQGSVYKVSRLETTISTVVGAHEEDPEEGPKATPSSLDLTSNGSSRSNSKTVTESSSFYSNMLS
Description: as §1, with “substance P (SP),” for “methacholine,”, “an NK1” for “a muscarine”
as §2, with “mg/mL” for “mg/mL of”, “20” for “30”, “SP” for “methacholine”
The test substance was dissolved in a 5% glucose solution, a 0.5 mL/kg solution was intratracheally administered with an intratracheal administration apparatus (model 1A-1B; Penn-Century, Inc.) 60 minutes before stimulation with SP.
as §3, with “SP” for “methacholine”, “determined” for “measured”, “SP-induced” for “methacholine-induced”, “(5%” for “(a 5%”

CN(CCN1CCC(OC(=O)Nc2ccccc2-c2ccccc2)CC1)C(=O)CCCCCCNc1ccc(C(=O)N(C)CCCN(C)C(=O)CO[C@H]2Cc3ccccc3C23CCN(CC[C@@]2(c4ccc(F)cc4)CN(C(=O)c4cc(C(F)(F)F)cc(C(F)(F)F)c4)CO2)CC3)cc1.Cl.Cl.Cl [Example 39]
ID50 (muscarine M3 receptor): 0.0559 mg/kg | ID50 (neurokinin NK2 receptor): 0.0336 mg/kg | ID50 (neurokinin NK1 receptor): 0.0388 mg/kg
